Assay results from US20230240300A1, “NANO[…] MATERIAL BASED ON NIOBIUM OLIGOMERS, OBTENTION METHOD, AND USE” (UNIVERSIDADE FEDERAL DE MINAS GERAIS, priority 2020, published 2023).

Tested on: coronavirus
Experiment: viral load reduction study, compound mixed with virus suspension
Format: cell-based
Conditions: eight parts compound mixed with one part virus suspension, room temperature, 10 min contact; FIG. 4(A)
Procedure: For viral load reduction studies directly employing the coronavirus, eight parts of the compound were adapted to room temperature (RT) and mixed with one part of the virus suspension. Immediately after incubation for defined periods at room temperature, the mixture was diluted 1:10. After four days of incubation at 37° C. in a CO2 incubator, cells were microscopically examined for virus-specific cytopathogenic effects after 10 min of virus contact with the niobium compound. All tests were performed in triplicate.
Initially, exploratory studies were carried out with different proportions of the compounds and with the materials separately. […] In fact, the results of samples S10 (representing a solution containing pure CTAB dissolved in water) and S12 (sample containing the same content of CTAB reacted with niobium), clearly indicate the potentiated effect of the Nb-CTAB species.

SMILES: CCCCCCCCCCCCCCCC[N+](C)(C)C.[Br-] [CTAB, hexadecyltrimethylammonium bromide]
- viral load reduction: approximately 30%
